Measurements taken from PubChem BioAssay (NCI).
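GI50 is the concentration that inhibits growth by half. TGI denotes the concentration required for complete inhibition of growth.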

Tests used:
Test in all cases: NCI anticancer screen, dose series, 384-well format
[1] = tested on: 786-0 renal
[2] = tested on: A498 renal
[3] = tested on: A549 NSCLC
[4] = tested on: ACHN renal
[5] = tested on: BT-549 breast
[6] = tested on: CAKI-1 renal
[7] = tested on: COLO 205 colon
[8] = tested on: DU-145 prostate
[9] = tested on: EKVX NSCLC
[10] = tested on: HCT-116 colon
[11] = tested on: HCT-15 colon
[12] = tested on: HL-60(TB) leukemia
[13] = tested on: HOP-62 NSCLC
[14] = tested on: HOP-92 NSCLC
[15] = tested on: HS 578T breast
[16] = tested on: HT29 colon
[17] = tested on: IGROV1 ovarian
[18] = tested on: K-562 leukemia
[19] = tested on: KM12 colon
[20] = tested on: M14 melanoma
[21] = tested on: MALME-3M melanoma
[22] = tested on: MDA-MB-231 breast
[23] = tested on: MDA-MB-435 melanoma
[24] = tested on: MDA-MB-468 breast
[25] = tested on: MOLT-4 leukemia
[26] = tested on: NCI-H226 lung
[27] = tested on: NCI-H23 lung
[28] = tested on: NCI-H322M lung
[29] = tested on: NCI-H460 NSCLC
[30] = tested on: NCI-H522 lung
[31] = tested on: OVCAR-3 ovarian
[32] = tested on: OVCAR-4 ovarian
[33] = tested on: OVCAR-5 ovarian
[34] = tested on: OVCAR-8 ovarian
[35] = tested on: PC-3 prostate
[36] = tested on: RXF 393 renal
[37] = tested on: SF-268 CNS
[38] = tested on: SF-295 CNS
[39] = tested on: SF-539 CNS
[40] = tested on: SK-MEL-2 melanoma
[41] = tested on: SK-MEL-28 melanoma
[42] = tested on: SK-MEL-5 melanoma
[43] = tested on: SK-OV-3 ovarian
[44] = tested on: SN12C renal
[45] = tested on: SNB-19 CNS
[46] = tested on: SNB-75 CNS
[47] = tested on: SR leukemia
[48] = tested on: SW-620 colon
[49] = tested on: T-47D breast
[50] = tested on: TK-10 renal
[51] = tested on: U251 glioblastoma
[52] = tested on: UACC-257 melanoma
[53] = tested on: UACC-62 melanoma
[54] = tested on: UO-31 renal
[55] = tested on: CCRF-CEM leukemia
[56] = tested on: HCC-2998 colon
[57] = tested on: LOX IMVI melanoma
[58] = tested on: MCF7 breast
[59] = tested on: NCI/ADR-RES ovarian
[60] = tested on: RPMI-8226 leukemia

In the case of `Nc1nc(Nc2ccc3c(c2)CC[C@@H](N2CCCC2)CC3)nn1-c1cc2c(nn1)-c1ccccc1CCC2`, the GI50 [1] is reported as 456 nM, the TGI [1] is reported as 1640 nM and the GI50 [2] is reported as 327 nM. For the same compound, the TGI [2] was 1190 nM, the GI50 [3] was 1380 nM and the TGI [3] was 2700 nM. The GI50 [4] was 431 nM, the TGI [4] was 1510 nM and the GI50 [5] was 1080 nM. The TGI [5] was 2270 nM, the GI50 [6] was 493 nM and the TGI [6] was 1720 nM. The GI50 [7] was 1500 nM, the TGI [7] was 2840 nM and the GI50 [8] was 939 nM. The TGI [8] was 2160 nM, the GI50 [9] was 1020 nM and the TGI [9] was 2190 nM. The GI50 [10] was 478 nM, the TGI [10] was 1730 nM and the GI50 [11] was 564 nM. The TGI [11] was 1800 nM, the GI50 [12] was 1210 nM and the TGI [12] was 2450 nM. It also gave a GI50 [13] of 1020 nM, a TGI [13] of 2190 nM and a GI50 [14] of 798 nM. The TGI [14] was 2070 nM, the GI50 [15] was 262 nM and the TGI [15] was 1270 nM. It also gave a GI50 [16] of 326 nM, a TGI [16] of 1080 nM and a GI50 [17] of 418 nM. The TGI [17] was 1550 nM, the GI50 [18] was 331 nM and the TGI [18] was 1210 nM. The GI50 [19] was 1070 nM, the TGI [19] was 2290 nM and the GI50 [20] was 451 nM. It also gave a TGI [20] of 1590 nM, a GI50 [21] of 284 nM and a TGI [21] of 827 nM. It also gave a GI50 [22] of 1630 nM, a TGI [22] of 3000 nM and a GI50 [23] of 1020 nM. It also gave a TGI [23] of 2190 nM, a GI50 [24] of 1450 nM and a TGI [24] of 2760 nM. For the same compound, the GI50 [25] was 186 nM, the TGI [25] was 334 nM and the GI50 [26] was 1450 nM. It also gave a TGI [26] of 2770 nM, a GI50 [27] of 1330 nM and a TGI [27] of 2610 nM. For the same compound, the GI50 [28] was 529 nM, the TGI [28] was 1770 nM and the GI50 [29] was 360 nM. It also gave a TGI [29] of 1280 nM, a GI50 [30] of 1270 nM and a TGI [30] of 2540 nM. For the same compound, the GI50 [31] was 1150 nM, the TGI [31] was 2370 nM and the GI50 [32] was 1480 nM. It also gave a TGI [32] of 2800 nM, a GI50 [33] of 1630 nM and a TGI [33] of 3000 nM. It also gave a GI50 [34] of 1520 nM, a TGI [34] of 2860 nM and a GI50 [35] of 796 nM. It also gave a TGI [35] of 2050 nM, a GI50 [36] of 25.9 nM and a TGI [36] of 545 nM. It also gave a GI50 [37] of 1180 nM, a TGI [37] of 2410 nM and a GI50 [38] of 634 nM. It also gave a TGI [38] of 1940 nM, a GI50 [39] of 244 nM and a TGI [39] of 1110 nM. The GI50 [40] was 415 nM, the TGI [40] was 1400 nM and the GI50 [41] was 1400 nM. It also gave a TGI [41] of 2700 nM, a GI50 [42] of 1060 nM and a TGI [42] of 2250 nM. It also gave a GI50 [43] of 305 nM, a TGI [43] of 1240 nM and a GI50 [44] of 346 nM. It also gave a TGI [44] of 1680 nM, a GI50 [45] of 1590 nM and a TGI [45] of 2960 nM. For the same compound, the GI50 [46] was 1140 nM, the TGI [46] was 2350 nM and the GI50 [47] was 186 nM. For the same compound, the TGI [47] was 328 nM, the GI50 [48] was 1140 nM and the TGI [48] was 2370 nM. It also gave a GI50 [49] of 1210 nM, a TGI [49] of 2450 nM and a GI50 [50] of 1010 nM. The TGI [50] was 2180 nM, the GI50 [51] was 761 nM and the TGI [51] was 2020 nM. It also gave a GI50 [52] of 182 nM, a TGI [52] of 368 nM and a GI50 [53] of 773 nM. For the same compound, the TGI [53] was 2020 nM, the GI50 [54] was 1040 nM and the TGI [54] was 2220 nM.
With `Cc1ccccc1CN1CC2=C(CCN(Cc3ccccc3)C2=O)N2CCN=C12` the GI50 [1] was 4140 nM, the TGI [1] was > 100000 nM and the GI50 [2] was 4560 nM. The TGI [2] was > 100000 nM, the GI50 [3] was 4200 nM and the TGI [3] was > 100000 nM. The GI50 [4] was 6020 nM, the TGI [4] was > 100000 nM and the GI50 [5] was 4060 nM. The TGI [5] was 66400 nM, the GI50 [6] was 3970 nM and the TGI [6] was > 100000 nM. The GI50 [55] was 1040 nM, the TGI [55] was > 100000 nM and the GI50 [7] was 2880 nM. The TGI [7] was 14100 nM, the GI50 [8] was 3110 nM and the TGI [8] was > 100000 nM. The GI50 [9] was 3300 nM, the TGI [9] was > 100000 nM and the GI50 [56] was 2660 nM. The TGI [56] was 22800 nM, the GI50 [10] was 1900 nM and the TGI [10] was > 100000 nM. For the same compound, the GI50 [11] was 1780 nM, the TGI [11] was > 100000 nM and the GI50 [12] was 186 nM. The TGI [12] was 547 nM, the GI50 [13] was 1360 nM and the TGI [13] was 7900 nM. The GI50 [14] was 4300 nM, the TGI [14] was > 100000 nM and the GI50 [15] was 2230 nM. The TGI [15] was 20200 nM, the GI50 [16] was 12000 nM and the TGI [16] was > 100000 nM. For the same compound, the GI50 [17] was 53800 nM, the TGI [17] was > 100000 nM and the GI50 [18] was 631 nM. The TGI [18] was > 100000 nM, the GI50 [19] was 6870 nM and the TGI [19] was > 100000 nM. For the same compound, the GI50 [57] was 2090 nM, the TGI [57] was 88400 nM and the GI50 [20] was 3280 nM. For the same compound, the TGI [20] was > 100000 nM, the GI50 [21] was 3690 nM and the TGI [21] was 10500 nM. The GI50 [58] was 3120 nM, the TGI [58] was > 100000 nM and the GI50 [22] was 2830 nM. The TGI [22] was 9620 nM, the GI50 [24] was 363 nM and the TGI [24] was 1320 nM. It also gave a GI50 [25] of 1700 nM, a TGI [25] of 3390 nM and a GI50 [26] of 3420 nM. The TGI [26] was 63100 nM, the GI50 [27] was 2140 nM and the TGI [27] was 7970 nM. For the same compound, the GI50 [28] was 3340 nM, the TGI [28] was > 100000 nM and the GI50 [29] was 2610 nM. For the same compound, the TGI [29] was 9290 nM, the GI50 [30] was 2380 nM and the TGI [30] was 70900 nM. The GI50 [59] was 1390 nM, the TGI [59] was 7800 nM and the GI50 [31] was 2060 nM. It also gave a TGI [31] of 5710 nM, a GI50 [32] of 1080 nM and a TGI [32] of 4990 nM. For the same compound, the GI50 [33] was 3500 nM, the TGI [33] was > 100000 nM and the GI50 [34] was 796 nM. For the same compound, the TGI [34] was > 100000 nM, the GI50 [35] was 2810 nM and the TGI [35] was > 100000 nM. The GI50 [60] was 203 nM, the TGI [60] was 382 nM and the GI50 [36] was 4170 nM. The TGI [36] was 28000 nM, the GI50 [37] was 3990 nM and the TGI [37] was > 100000 nM. It also gave a GI50 [38] of 700 nM, a TGI [38] of 3170 nM and a GI50 [39] of 3540 nM. For the same compound, the TGI [39] was 23300 nM, the GI50 [41] was 4550 nM and the TGI [41] was > 100000 nM. For the same compound, the GI50 [42] was 1190 nM, the TGI [42] was 2900 nM and the GI50 [43] was 3440 nM. The TGI [43] was 36900 nM, the GI50 [44] was 3450 nM and the TGI [44] was > 100000 nM. The GI50 [45] was 2980 nM, the TGI [45] was > 100000 nM and the GI50 [46] was 2900 nM. The TGI [46] was 24900 nM, the GI50 [47] was 1000 nM and the TGI [47] was 2450 nM. For the same compound, the GI50 [48] was 5690 nM, the TGI [48] was > 100000 nM and the GI50 [49] was 2000 nM. For the same compound, the TGI [49] was 9660 nM, the GI50 [50] was 6470 nM and the TGI [50] was > 100000 nM. For the same compound, the GI50 [51] was 1800 nM, the TGI [51] was 6210 nM and the GI50 [52] was 1130 nM. For the same compound, the TGI [52] was 3110 nM, the GI50 [54] was 5970 nM and the TGI [54] was > 100000 nM.
